The term EC50 denotes the concentration at which the effect is half-maximal.

Here are results for 35 compounds from patent publication US20230021448A1, “COMPOUNDS AND COMPOSITIONS FOR TREATING CONDITIONS ASSOCIATED WITH STING ACTIVITY” (IFM Due, Inc., priority 2019, published 2023).

Each structure is given as a SMILES string.

T1 sequence (Q86WV6 whole entry R71H/G230A/H232R/R293Q): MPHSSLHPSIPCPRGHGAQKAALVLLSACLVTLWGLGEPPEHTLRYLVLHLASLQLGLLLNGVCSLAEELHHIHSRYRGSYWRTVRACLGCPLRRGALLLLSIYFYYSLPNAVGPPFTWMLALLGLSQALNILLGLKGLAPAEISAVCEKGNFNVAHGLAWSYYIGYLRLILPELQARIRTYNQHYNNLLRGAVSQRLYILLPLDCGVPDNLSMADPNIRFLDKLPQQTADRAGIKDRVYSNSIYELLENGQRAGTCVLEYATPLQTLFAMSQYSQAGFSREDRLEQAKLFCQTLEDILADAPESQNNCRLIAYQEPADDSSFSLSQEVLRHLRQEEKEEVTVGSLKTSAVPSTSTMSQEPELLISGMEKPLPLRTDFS

The assay addresses T1, STING (Homo sapiens, UniProt Q86WV6, G230A/H232R/R293Q/R71H).
T1 construct: host or cells: THP1-Dual KO-IFNAR2 cells
The assay is described as follows: STING reporter assay: luciferase reporter activity in THP1-Dual KO-IFNAR2 cells stimulated with 2'3'cGAMP. It is filed as cell-based. To be noted: 2′3′cGAMP 15 μM final, 24h, read-out: hSTING: EC50. The method, boiled down: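 THP1-Dual KO-IFNAR2 cells (2×10E6 cells/mL) incubated with compounds at 0.0017-100 μM final plus Lipofectamine-transfected 2′3′cGAMP (15 μM final), 24 h at 37 °C, 5% CO2. Luciferase in supernatant read by QUANTI-Luc luminescence; EC50 derived.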
Turning to `O=C(NCCN1CCCc2ccccc21)C(=O)Nc1c[nH]c2cc(F)c(F)cc12` [Compound 294, N-(5,6-difluoro-1H-indol-3-yl)-N′-[2-(1,2,3,4-tetrahydroquinolin-1-yl)ethyl]ethanediamide], the EC50 was 0.2 to 1 µM.
Take `O=C(NCc1cccc(C(F)(F)F)n1)C(=O)Nc1c[nH]c2cc(F)c(F)cc12` [Compound 338]: the EC50 lay in the range of 0.2 to 1 µM.
To `O=C(Nc1c[nH]c2cc(F)c(F)cc12)C(=O)NC1CCC(O)(C(F)(F)F)CC1` (centres unmarked) [Compound 300, N-(5,6-difluoro-1H-indol-3-yl)-N′-[4-hydroxy-4-(trifluoromethyl)cyclohexyl] ethanediamide] belongs 5 to 100 µM; to `CC(CNC(=O)C(=O)Nc1c[nH]c2cc(F)c(F)cc12)Oc1ccc(C(F)(F)F)cc1` (centres unmarked) [Compound 158, N1-(5,6-difluoro-1H-indol-3-yl)-N2-(2-(4-(trifluoromethyl)phenoxy)propyl) oxalamide], 0.2 to 1 µM.
The result for `O=C(Nc1ccc(C(F)(F)F)cc1)C(=O)Nc1c[nH]c2ccc(F)c(F)c12` [Compound 180] reads 0.2 to 1 µM.
Take `O=C(Nc1c[nH]c2cc(F)c(F)cc12)C(=O)NC1CCC2(CCCCC2)C1` (single isomer, unassigned) [Compound 247]: the EC50 lay within 0.2 to 1 µM.
The result for `O=C(NC[C@@H](c1ccccc1)C(F)F)C(=O)Nc1c[nH]c2cc(F)c(F)cc12` [Compound 348] reads 0.2 to 1 µM.
Consider `O=C(Nc1c[nH]c2cc(F)c(F)cc12)C(=O)NC1CCc2ccccc2C1` (centres unmarked) [Compound 313, N-(5,6-difluoro-1H-indol-3-yl)-N′-(1,2,3,4-tetrahydronaphthalen-2-yl)ethanediamide], for which the EC50 lay within 0.2 to 1 µM.
The result for `O=C(NCCOc1cncc(C(F)(F)F)c1)C(=O)Nc1c[nH]c2cc(F)c(F)cc12` [Compound 325] reads 0.2 to 1 µM; that for `CC(NC(=O)C(=O)Nc1c[nH]c2cc(F)c(F)cc12)c1cccc(OC(F)(F)F)c1` (centres unmarked) [Compound 288, N-(5,6-difluoro-1H-indol-3-yl)-N′-{1-[3-(trifluoromethoxy)phenyl]ethyl} ethanediamide], 0.2 to 1 µM; that for `O=C(Nc1c[nH]c2cc(F)c(F)cc12)C(=O)NC1CCC(Oc2ccc(C(F)(F)F)cc2)C1` (centres unmarked) [Compound 217], 0.2 to 1 µM.
Turning to `O=C(NCCC1(C(F)(F)F)CC1)C(=O)Nc1c[nH]c2cc(F)c(F)cc12` [Compound 152, N1-(5,6-difluoro-1H-indol-3-yl)-N2-(2-(1-(trifluoromethyl)cyclopropyl)ethyl)oxalamide], the EC50 was 0.2 to 1 µM.
Consider `Cc1ccc(CNC(=O)C(=O)Nc2c[nH]c3cc(F)c(F)c(Br)c23)cc1C(F)(F)F` [Compound 242], for which the EC50 fell in the range of 5 to 100 µM.
The result for `CN1CCOc2cc(NC(=O)C(=O)Nc3c[nH]c4cc(F)c(F)cc34)cnc21` [Compound 219] reads 1 to 5 µM; that for `C[C@@H](CN(C)c1ccccc1)NC(=O)C(=O)Nc1c[nH]c2cc(F)c(F)cc12` (stereo in doubt) [Compound 319], 0.2 to 1 µM; that for `O=C(Nc1c[nH]c2cc(F)c(F)cc12)C(=O)N[C@@H]1CCCC(Oc2ccc(C(F)(F)F)cc2)C1` (some centres unmarked) [Compound 234], 0.2 to 1 µM.
For the compound `O=C(NCc1ccc(C(F)(F)F)c(Cl)c1)C(=O)Nc1c[nH]c2ccc(-c3cnn(CC(F)(F)F)c3)cc12` [Compound 350], the EC50 lay in the range of 0.2 to 1 µM.
Regarding `O=C(Nc1c[nH]c2cc(F)c(F)cc12)C(=O)NC1CCC2(CCCC2)CC1` [Compound 314], the EC50 lay in the range of 0.2 to 1 µM.
For `O=C(Nc1c[nH]c2cc(F)c(F)cc12)C(=O)NC1CCCC2(CCCCC2)C1` (single isomer, unassigned) [Compound 257], the EC50 is 0.2 to 1 µM.
The result for `CC(C)n1cc(-c2ccc3[nH]cc(NC(=O)C(=O)NCc4ccc(C(F)(F)F)c(Cl)c4)c3c2)cn1` [Compound 129] reads 0.2 to 1 µM; that for `CCC(NC(=O)C(=O)Nc1c[nH]c2cc(F)c(F)cc12)c1cccc(C(F)(F)F)c1` (centres unmarked) [Compound 311, N-(5,6-difluoro-1H-indol-3-yl)-N′-{1-[3-(trifluoromethyl)phenyl]propyl} ethanediamide], 0.2 to 1 µM; that for `CC(NC(=O)C(=O)Nc1c[nH]c2cc(F)c(F)cc12)c1cc(C(F)(F)F)c(Cl)cn1` (single isomer, unassigned) [Compound 260], 1 to 5 µM.
Consider `O=C(NCc1cccc2c1OC(F)(F)O2)C(=O)Nc1c[nH]c2cc(F)c(F)cc12` [Compound 148, N1-(5,6-difluoro-1H-indol-3-yl)-N2-((2,2-difluorobenzo[d] [1,3]dioxol-4-yl)methyl) oxalamide], for which the EC50 was in the range of 0.04 to 0.2 µM.
The result for `O=C(NCC(c1ccccc1)C(F)F)C(=O)Nc1c[nH]c2cc(F)c(F)cc12` (centres unmarked) [Compound 139] reads 0.2 to 1 µM; that for `CC(C)(C)OC(=O)N1CC2CC(NC(=O)C(=O)Nc3c[nH]c4cc(F)c(F)cc34)CC2C1` (centres unmarked) [Compound 267, tert-butyl 5-{[(5,6-difluoro-1H-indol-3-yl)carbamoyl] formamido}-octahydrocyclopenta[c] pyrrole-2-carboxylate], 0.2 to 1 µM; that for `CC(CN(C)c1ccccc1)NC(=O)C(=O)Nc1c[nH]c2cc(F)c(F)cc12` (centres unmarked) [Compound 328], 0.2 to 1 µM.
Take `O=C(Nc1ccc(-n2cncn2)c(Cl)c1)C(=O)Nc1c[nH]c2cc(F)c(F)cc12` [Compound 265, N′-[3-chloro-4-(1H-1,2,4-triazol-1-yl)phenyl]-N-(5,6-difluoro-1H-indol-3-yl)ethanediamide]: the EC50 fell in the range of 1 to 5 µM.
With `O=C(NCCOc1ccc(C(F)(F)F)nc1)C(=O)Nc1c[nH]c2cc(F)c(F)cc12` [Compound 327], the EC50 was in the range of 0.2 to 1 µM.
Consider `O=C(Nc1cnc(-n2nccn2)c(C(F)(F)F)c1)C(=O)Nc1c[nH]c2cc(F)c(F)cc12` [Compound 238, N1-(6-(2H-1,2,3-triazol-2-yl)-5-(trifluoromethyl)pyridin-3-yl)-N2-(5,6-difluoro-1H-indol-3-yl)oxalamide], for which the EC50 lay in the range of 1 to 5 µM.
To `O=C(Nc1c[nH]c2cc(F)c(F)cc12)C(=O)N1CCN(c2ccc(CC(F)(F)F)cn2)CC1` [Compound 241] belongs 0.2 to 1 µM; to `O=C(NCC1COc2ccccc2O1)C(=O)Nc1c[nH]c2cc(F)c(F)cc12` (centres unmarked) [Compound 261, N-(5,6-difluoro-1H-indol-3-yl)-N′-[(2,3-dihydro-1,4-benzodioxin-2-yl)methyl] ethanediamide], 0.2 to 1 µM.
The result for `Cc1cnc(CNC(=O)C(=O)Nc2c[nH]c3cc(F)c(F)cc23)cc1C(F)(F)F` [Compound 318] reads 0.2 to 1 µM.
To `O=C(NCC(=O)N1CCc2ccc(C(F)(F)F)cc21)C(=O)Nc1c[nH]c2cc(F)c(F)cc12` [Compound 204] belongs 0.04 to 0.2 µM; to `O=C(Nc1c[nH]c2cc(F)c(F)cc12)C(=O)N[C@@H]1CCN(c2ccccc2)C1` [Compound 128], 1 to 5 µM.
As for `CCC1CCN(C(=O)C(=O)Nc2c[nH]c3cc(F)c(F)cc23)CC1` [Compound 117], the EC50 is 1 to 5 µM.
